Test systems include ACHN renal; HCT-15 colon; HL-60(TB) leukemia; HOP-92 NSCLC; LOX IMVI melanoma; MCF7 breast; MDA-MB-435; NCI-H23 lung; NCI/ADR-RES ovarian; RXF 393 renal.
Assay in all cases: NCI tumour cell line growth inhibition, 48 h

Several values for one entry are separate records, joined by “and”; a condition that tells them apart may be missing. Equal values may be shown once.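 1) Cells in 96-well plates. 2) Compound, 48 h, 5 concentrations. 3) Linear interpolation between surrounding doses. 4) Unreached endpoint = highest concentration. GI50 = concentration required for 50% inhibition of growth. TGI: total growth inhibition.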 Where only a bound is given, the exact number is not on record here.

The source of these data is PubChem BioAssay (NCI).

Turning to `CN1CCN(c2ccc(NC3=CC(=O)c4ncncc4C3=O)cc2)CC1`, the GI50 was 0.228 µM in the experiment with ACHN renal; 0.343 µM in the experiment with HCT-15 colon; 0.249 µM with HL-60(TB) leukemia; 0.312 µM with HOP-92 NSCLC; 0.192 µM with LOX IMVI melanoma; 0.186 µM in the experiment with MCF7 breast. Moreover, the GI50 in the experiment with MDA-MB-435 is 0.191 µM; in the experiment with NCI-H23 lung, 0.369 µM; in the experiment with NCI/ADR-RES ovarian, 0.294 µM; in the experiment on RXF 393 renal it was 1.29 µM. Besides, the TGI worked out at 0.52 µM in the experiment with ACHN renal; 1.44 µM with HCT-15 colon; 0.635 µM with HL-60(TB) leukemia; 0.993 µM in the experiment with HOP-92 NSCLC; 0.401 µM in the experiment with LOX IMVI melanoma; 0.405 µM with MCF7 breast. Further, the TGI came to 0.35 µM in the experiment on MDA-MB-435, 1.67 µM in the experiment on NCI-H23 lung, 1.01 µM in the experiment on NCI/ADR-RES ovarian and 2.61 µM with RXF 393 renal.
For the compound `CC1=C[C@@H]2c3c(c(O)c(O)c4oc5cc(O)cc(O)c5c(=O)c34)[C@@H](c3cc(O)c(O)c4oc5cc(O)cc(O)c5c(=O)c34)[C@@H]2C(C)(C)C1`, the GI50 was 4.25 µM with ACHN renal; 3.16 µM in the experiment with HCT-15 colon; 4.87 µM in the experiment on HL-60(TB) leukemia; 1.85 µM in the experiment with HOP-92 NSCLC; 1.53 µM in the experiment on LOX IMVI melanoma; 1.89 µM with MCF7 breast. Moreover, the GI50 in the experiment with MDA-MB-435 is 3.49 µM; in the experiment with NCI-H23 lung, 3.33 µM; with NCI/ADR-RES ovarian, 10.2 µM; in the experiment with RXF 393 renal it was 5.69 µM. Moreover, the TGI turned out to be 15.7 µM in the experiment on ACHN renal; 12.8 µM in the experiment with HCT-15 colon; 27.4 µM with HL-60(TB) leukemia; 6.6 µM with HOP-92 NSCLC; 4.26 µM with LOX IMVI melanoma; 11 µM in the experiment with MCF7 breast. Besides, the TGI amounted to 13.7 µM in the experiment with MDA-MB-435, 14.5 µM in the experiment on NCI-H23 lung, 27.1 µM in the experiment with NCI/ADR-RES ovarian and 17.3 µM in the experiment with RXF 393 renal.
For the compound `CSc1nc(SC)c2c(C)cn(COCCOC(=O)c3ccccc3)c2n1`, the TGI in the experiment with ACHN renal was > 100 µM; in the experiment with HCT-15 colon, > 100 µM; with HL-60(TB) leukemia, > 100 µM; with HOP-92 NSCLC, 99.7 µM; in the experiment with LOX IMVI melanoma, > 100 µM; in the experiment with MCF7 breast it was > 100 µM. In addition, the TGI in the experiment on MDA-MB-435, with NCI-H23 lung, in the experiment with NCI/ADR-RES ovarian and with RXF 393 renal was > 100 µM in each case.
For the compound `COc1ccc(-c2[nH]ncc2Nc2cc(OC)c(OC)c(OC)c2)cc1`, the GI50 was 10.3 µM in the experiment with ACHN renal; 0.702 µM in the experiment with HCT-15 colon; 0.304 µM in the experiment on HL-60(TB) leukemia; > 62.9 µM in the experiment with HOP-92 NSCLC; 6.13 µM in the experiment with LOX IMVI melanoma; 0.736 µM in the experiment with MCF7 breast. Also, the GI50 in the experiment with MDA-MB-435 is 0.177 µM; with NCI-H23 lung, 4.04 µM; in the experiment with NCI/ADR-RES ovarian, 1.86 µM; with RXF 393 renal it was 1.92 µM. The TGI in the experiment with ACHN renal is > 100 µM; in the experiment with HCT-15 colon, > 100 µM; with HL-60(TB) leukemia, 1.57 µM; in the experiment on HOP-92 NSCLC, > 100 µM; in the experiment on LOX IMVI melanoma it was > 100 µM; in the experiment on MCF7 breast, > 100 µM. Moreover, the TGI in the experiment with MDA-MB-435 was 0.395 µM; in the experiment on NCI-H23 lung, > 100 µM; in the experiment with NCI/ADR-RES ovarian it was 25 µM; in the experiment on RXF 393 renal, > 22.3 µM.
On to `COc1cc(-c2ccc[nH]2)[nH]c1/C=C1\N=C(C)C(CC(=O)OCC(C)(C)C)=C1C`, for which the GI50 is 0.287 µM with ACHN renal; 0.211 µM in the experiment on HCT-15 colon; 0.239 µM in the experiment on HL-60(TB) leukemia; 0.11 µM in the experiment with HOP-92 NSCLC; 0.0733 µM in the experiment with LOX IMVI melanoma; 0.175 µM with MCF7 breast. In addition, the GI50 is 0.282 µM in the experiment with MDA-MB-435, 0.441 µM in the experiment on NCI-H23 lung, 0.357 µM in the experiment on NCI/ADR-RES ovarian and 0.258 µM in the experiment with RXF 393 renal. Also, the TGI turned out to be 0.965 µM in the experiment with ACHN renal; 1.12 µM in the experiment on HCT-15 colon; 0.801 µM in the experiment with HL-60(TB) leukemia; 0.531 µM in the experiment on HOP-92 NSCLC; 0.467 µM with LOX IMVI melanoma; 1.25 µM in the experiment with MCF7 breast. Further, the TGI in the experiment with MDA-MB-435 was 1.2 µM; in the experiment with NCI-H23 lung, 2.22 µM; with NCI/ADR-RES ovarian, 1.46 µM; in the experiment on RXF 393 renal, 1.21 µM.
In the case of `Cn1c(I)c(C#C[Si](C)(C)C)c(=O)[nH]c1=O`, the GI50 in the experiment on ACHN renal was 1.61 µM; in the experiment with HCT-15 colon, 1.83 µM; with HL-60(TB) leukemia it was 1.9 µM; with HOP-92 NSCLC, 1.08 µM; in the experiment on LOX IMVI melanoma, 2.09 µM; in the experiment with MCF7 breast, 6.2 µM. The GI50 was 3.1 µM with MDA-MB-435, 4.25 µM with NCI-H23 lung, 20.7 µM with NCI/ADR-RES ovarian and 0.639 µM in the experiment on RXF 393 renal. For the same compound, the TGI in the experiment with ACHN renal came to 3.01 µM; with HCT-15 colon it was 3.64 µM; in the experiment on HL-60(TB) leukemia, 4.42 µM; in the experiment with HOP-92 NSCLC it was 2.53 µM; with LOX IMVI melanoma, 4 µM; in the experiment with MCF7 breast, 21.5 µM. Moreover, the TGI in the experiment on MDA-MB-435 came to 11.5 µM; in the experiment with NCI-H23 lung, 17.3 µM; in the experiment with NCI/ADR-RES ovarian, 42.8 µM; in the experiment with RXF 393 renal it was 1.74 µM.
With `CNc1cc(-c2cccc(OC(F)(F)F)c2)nc2ccc(N3CCCC3)cc12`, the GI50 in the experiment with ACHN renal was 1.61 µM and 1.63 µM and 1.74 µM; in the experiment on HCT-15 colon, 0.86 µM and 1.16 µM and 1.3 µM; in the experiment with HL-60(TB) leukemia, 2.12 µM and 1.96 µM and 1.95 µM; in the experiment on HOP-92 NSCLC, 1.22 µM and 1.3 µM and 1.24 µM; in the experiment with LOX IMVI melanoma, 1.71 µM and 1.74 µM; in the experiment on MCF7 breast, 1.22 µM and 1.65 µM and 1.75 µM. For the same compound, the GI50 is 1.59 µM and 1.71 µM and 1.63 µM with MDA-MB-435; 1.8 µM and 1.94 µM and 1.74 µM in the experiment with NCI-H23 lung; 1.78 µM and 1.89 µM and 1.6 µM in the experiment with NCI/ADR-RES ovarian; 1.8 µM and 1.81 µM and 1.51 µM with RXF 393 renal. Besides, the TGI in the experiment with ACHN renal was 2.96 µM and 2.98 µM and 3.12 µM; in the experiment with HCT-15 colon, 2.35 µM and 2.54 µM and 2.8 µM; in the experiment on HL-60(TB) leukemia it was 4.65 µM and 4.94 µM and 4.28 µM; with HOP-92 NSCLC it was 2.55 µM and 2.64 µM and 2.58 µM; in the experiment with LOX IMVI melanoma, 3.24 µM and 3.28 µM and 3.23 µM; in the experiment with MCF7 breast, 2.88 µM and 3.32 µM and 3.62 µM. Further, the TGI is 2.97 µM and 3.19 µM and 3.09 µM with MDA-MB-435; 3.67 µM and 3.62 µM and 3.32 µM with NCI-H23 lung; 3.87 µM and 3.79 µM and 3.19 µM in the experiment with NCI/ADR-RES ovarian; 3.27 µM and 3.28 µM and 2.91 µM with RXF 393 renal.
As for `Fc1ccc(Nc2nc(Nc3ccc(-c4nc5ccccc5[nH]4)cc3)c3cn[nH]c3n2)cc1`, the GI50 is 2.05 µM in the experiment on ACHN renal; 1.76 µM in the experiment on HCT-15 colon; 2.96 µM in the experiment on HL-60(TB) leukemia; 1.5 µM in the experiment with HOP-92 NSCLC; 1.79 µM with LOX IMVI melanoma; 1.74 µM with MCF7 breast. Further, the values for the GI50 in the experiment on MDA-MB-435, in the experiment with NCI/ADR-RES ovarian and in the experiment with RXF 393 renal were 1.71 µM, 2.11 µM and 1.67 µM, respectively. Further, the TGI is 5.08 µM in the experiment with ACHN renal; 4.78 µM with HCT-15 colon; 6.92 µM in the experiment on HL-60(TB) leukemia; 3.19 µM in the experiment with HOP-92 NSCLC; 3.62 µM with LOX IMVI melanoma; 4.12 µM with MCF7 breast. The TGI came out at 3.23 µM with MDA-MB-435, 5.04 µM in the experiment with NCI/ADR-RES ovarian and 3.4 µM with RXF 393 renal.
